Results taken from patent publication US5189212A, “Triarylethylene carboxylic acids with estrogenic activity” (University of Georgia Research Foundation, Inc., priority 1990, dated 1993).
“Also recorded” adds a separate entry of the source.

How the values were obtained:
[1] = test system: UDP glucuronyl transferase; conditions: rat, microsomes, 0.5 h
[2] = test system: UDP glucuronyl transferase; assay: Rat liver microsomal glucuronidation; conditions: for Vmax: detergent-activated rat liver microsomes, 37° C., 30 min, average of two to three experiments; for substrate for UDP glucuronyl transferase: rat liver microsomes, in vitro
estrogen receptor = target: T1, estrogen receptor (Rattus norvegicus, UniProt P06211); assay: Estrogen receptor affinity: competition with [3H]estradiol binding in rat uterine cytosol; conditions: for estrogen receptor affinity relative to estradiol (affinity=100): estradiol = 100
T1 construct: Uteri from Sprague-Dawley rats (200-250g) are homogenized; from tissue; host or cells: rat uterus, 100000g supernatant (cytosol), Sprague-Dawley
T1 sequence (P06211 1-600): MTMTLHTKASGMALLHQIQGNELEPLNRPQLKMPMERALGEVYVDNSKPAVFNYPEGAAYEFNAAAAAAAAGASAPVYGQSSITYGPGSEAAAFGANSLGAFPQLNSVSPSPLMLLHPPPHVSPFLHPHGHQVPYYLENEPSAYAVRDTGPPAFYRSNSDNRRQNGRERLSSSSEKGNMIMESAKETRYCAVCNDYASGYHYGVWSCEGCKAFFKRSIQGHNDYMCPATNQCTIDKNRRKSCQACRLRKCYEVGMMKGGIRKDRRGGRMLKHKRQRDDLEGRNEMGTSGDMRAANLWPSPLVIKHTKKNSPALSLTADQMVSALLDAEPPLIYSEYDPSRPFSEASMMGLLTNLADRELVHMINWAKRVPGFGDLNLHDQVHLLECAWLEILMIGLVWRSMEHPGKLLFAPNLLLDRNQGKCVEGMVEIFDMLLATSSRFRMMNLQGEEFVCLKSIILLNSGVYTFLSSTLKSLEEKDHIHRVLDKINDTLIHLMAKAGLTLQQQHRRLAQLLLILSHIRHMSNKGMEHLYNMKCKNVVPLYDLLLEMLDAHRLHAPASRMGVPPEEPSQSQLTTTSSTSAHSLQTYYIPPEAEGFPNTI
Experimental: The estrogen receptor affinity of the triarylethylenes of Formula I can be measured according to the method of Ruenitz, et.al., J. Med. Chem., 25:1056, (1982).
[^3 H]Estradiol (58 Ci/mmol) can be obtained from Amersham Corp., and its radiochemical purity checked by TLC. Uteri from Sprague-Dawley rats (200-250g) are homogenized (1 uterus/2 mL) in ice-cold 10 mM Tris buffer, pH 7.4, that contains 1.5 mM EDTA and 3 mM sodium azide (TEA buffer). The homogenate is centrifuged at 100000g for 1 hour at 4° C. Incubation mixtures should contain 200-μμL aliquots of the supernatant, and 10 μL of a solution of 1.1×10^-7 M [^3 H]estradiol in dimethylacetamide, and 10 μL unlabeled competitor in dimethylacetamide. Ten concentrations of competitor are used ranging from 1×10^-9 to 5×10^-5 M. Control incubations should contain 10 μL of solvent alone. Nonspeoifio binding is determined in similarly prepared incubations that contain 1×10^-5 M estradiol. Incubations should be performed in triplicate, in 5-mL polypropylene centrifuge tubes, at 2°- 4° C. for 4 hours. Then a suspension of 400 μL of dextran-coated charcoal [0.1% dextran (Sigma no. D-1390), 1% acid-washed Norit A in TEA buffer]is added, and the incubation continues for 15 minutes at 2°-4° C. Tubes are then centrifuged at 1000g for 10 minutes, and 400-μL aliquots are dissolved in 5 mL of Scintivense (Fisher), Bound [^3 H]estradiol is determined by liquid scintillation spectrometry. Quench corrections are made by the external standard method.
The estrogen receptor affinity of 4-hydroxy tamoxifen acid was measured according to the assay described in Example 2. FIG. 2 is a graph of the effect of increasing concentrations (nM) of 4-HTA (--.quadrature.--), estradiol (--O--), and TA (-- --) on the binding of [^3 H]estradiol in uterine cytosol from immature rats. Specifically bound ^3 H from [^3 H]estradiol is plotted as a percentage of that bound in control incubations in the absence of 4-HTA, estradiol, or TA. Estradiol and tamoxifen, the non-hydroxylated analog of 4-HTA, were used as standards.

MCF7 breast cancer cells = assay: Reversal of the inhibitory effect of tamoxifen on MCF 7 cell growth; assay type: cell-based, human; conditions: 1 μM tamoxifen, FIG. 4
Experimental: Cells were grown as summarized in Example 4 and tamoxifen was added to flasks as a solution in DMSO […], as were increasing concentrations of TA or 4-HTA.

MCF 7 cells = assay: Stimulation of MCF 7 cell proliferation in estrogen free medium; assay type: cell-based, human; conditions: nine days, FIG. 5
Experimental: Cells were conditioned as described in Example 2, and then withdrawn from estrogen stimulation and incubated with phenol red free medium prepared with charcoal-stripped fetal calf serum. After five days, medium was changed and 4-HTA or estradiol were added as described in Example 2. After nine days, cell numbers were determined.
Each point is the average of 3-6 determinations. […] These findings indicate that 4-HTA is a pure estrogen with no residual estrogen antagonist activity.

[3] = Distribution and elimination of TA and 4-HTA after intraperitoneal [14C]TAM in immature female rats; assay type: in vivo, rat; conditions: for Percent of Dose Present as: Total 14C: i.p. [14C]TAM, rat, values ±5%
Experimental: Animals and Dosing. Female Sprague-Dawley rats, 45-55 grams each, were maintained on a normal laboratory diet and were divided into groups of four to six per experiment. […] This solution was prepared by dissolving the drug in 10 ml of 1% citric acid in N,N-dimethylacetamide and diluting the solution with 0.2 ml of 1.15% aqueous KCl just before use. Animals were housed in polycarbonate metabolism cages equipped for separate collection of urine and feces.
Processing of Biological Samples. At 24 and 48 hours after dosing, animals were killed by decapitation. Uteri and livers were removed and weights were recorded. Pooled uteri, and livers were homogenized in 10 volumes of methanol. Each homogenate was centrifuged at 400×g for 10 min. Triplicate 1.0 ml aliquots of supernatants were counted for radioactivity in 8 ml of Ecoscint (National Diagnostics, Somerville, N.J.). Collected urine was lyophilized. The residue was sonicated in methanol, and the mixture was filtered and the solid residue was washed with methanol to make the final volume equal to the original urine volume. This procedure removed endogenous polar materials with no loss of radioactivity. Feces collected 24 and 48 hr after dosing were homogenized in 10 volumes of methanol. The homogenate was centrifuged and analyzed for radioactivity as described above.
Extraction and Analysis. Unlabelled TA and 4-HTA […] were added as standards to methanol extracts of tissues, urine, and feces. A third standard, TA glyOH, was added only to the urine extract. Each solution was then concentrated under a stream of N2. To each residue was added 0.5 ml of 1% aqueous NaOH. The resulting mixture (pH≥11) was extracted serially two times with 1.0 ml portions of ether. Radioactivity present in these extracts was determined. To the aqueous phase was added 0.1 ml of 10% HCl, and the mixture (pH≤1) was extracted as before. Radioactivity was determined in some of these extracts. Otherwise, they were concentrated under a stream of N2. Each residue was dissolved in […] of acetone and the solution was applied to a TLC plate. Developed plates were segmented using the locations of reference compounds under UV light of 254 nm wavelength for guidance. Radioactivity was determined in segments containing reference compounds, and in some cases in all segments from TLC plates.
The specific activity of TA and 4-HTA eluted from developed chromatograms was determined by immersion of the segments containing these metabolites in a solution of 2.8% ammonia in methanol for 12 hr. Radioactivity in aliquots of eluates was determined, and quantities of TA and 4-HTA were estimated from absorbance of solutions at 283 nm using e283 =1.2×10^4 M^-1 cm-^-1 for each compound. Subsequent processing of eluates was conducted according to methods known in the art.

[4] = test system: MCF 7 human breast cancer cells; assay: Effect on proliferation of MCF 7 cells grown in the presence of estrogens; conditions: cell numbers after five days, FIG. 3
Experimental: The antiestrogenic effect of the nonsteroidal triarylethylene compounds of Formula I is measured by comparing the growth of MCF7 breast cancer cells in the presence and absence of the compounds, according to the method described below for 4-hydroxy tamoxifen acid.
Cell numbers were determined five days later, after approximately four population doublings in drug free controls. Data shown are expressed as percentages of cell numbers in control flasks and are averages of six estimates from two separate experiments.

[5] = Rat liver microsomal glucuronidation; conditions: rat, liver microsomes

Compound | Vmax [2] [nmols/mg-min] | estrogen receptor affinity relative to estradiol (affinity=100) (estrogen receptor) | reversal of the growth inhibitory effect of TAM on MCF 7 cells (MCF7 breast cancer cells) | substrate for UDP glucuronyl transferase [2] | inhibition of growth/proliferation of MCF 7 human breast cancer cells [4] | Km at 0.5 h [5] [µM] | further results
4-hydroxytamoxifen [4-HT] | 7.4 | – | – | – | – | – | Km [1]: 83 µM
CCC(=C(c1ccc(O)cc1)c1ccc(OCC(=O)O)cc1)c1ccccc1 [4-HTA, (E,Z)-2-{4-[1-(p-hydroxyphenyl)-2-phenyl]-1-butenyl}phenoxyacetic acid] | 0.0 | 21 | both compounds reverse the growth inhibitory effect; also recorded: reversed in a dose dependent manner | not a substrate | Neither tamoxifen acid nor 4-HTA inhibits the growth; also recorded: no effect on proliferation | – | estrogen receptor affinity as percent of that of estradiol (estrogen receptor; [3H]estradiol, uterine cytosol from immature rats, FIG. 2): 21%; maximal level of MCF 7 growth stimulation compared with estradiol (MCF 7 cells): stimulated growth to the same level as did estradiol; stimulation of MCF 7 cell growth (MCF 7 cells; submicromolar concentrations): dose dependent stimulation of growth; urinary elimination form ([3]; immature female rat): eliminated unchanged in the urine; presence in uterine or ovarian tissue ([3]; immature female rat, after [14C]TAM): not detected in uterine or ovarian tissue
CCC(=C(c1ccc(O)cc1)c1ccc(OCC(=O)OC)cc1)c1ccccc1 [Methyl 4-HTA] | 16.5 | – | – | excellent substrate | – | 73 | –
CCC(=C(c1ccccc1)c1ccc(OCC(=O)O)cc1)c1ccccc1 [TA, (E,Z)-4-(1,2-diphenyl-1-butenyl)phenoxyacetic acid] | 0.0 | 0.01 | to a lesser extent | – | Neither tamoxifen acid nor 4-HTA inhibits the growth | – | binding to the estrogen receptor (estrogen receptor; FIG. 2): also binds to the estrogen receptor; reversal of the growth inhibitory effect of TAM on MCF 7 cells (MCF7 breast cancer cells; listed as tamoxifen acid): both compounds reverse the growth inhibitory effect
CCC(=C(c1ccc(O)cc1)c1ccc(O)cc1)c1ccccc1 [TAM bis-phenol, 1,1-bis-(4-hydroxyphenyl)-2-phenyl-1-butene] | 14.7 | – | – | – | – | 54 | –
CC/C(=C(\c1ccccc1)c1ccc(OCCN(C)C)cc1)c1ccccc1 [TAM, (Z)-2-[4-(1,2-diphenyl-1-butenyl)phenoxy]-N,N-dimethylethanamine] | – | – | – | – | potent inhibitor of cell growth | – | Percent of Dose Present as: Total 14C ([3]; feces, 0-24 hr after dosing): 30.49%; Percent of Dose Present as: Total 14C ([3]; feces, 24-48 hr after dosing): 16.05%; Percent of Dose Present as: Total 14C ([3]; liver, 24 hr after dosing): 20.25%; Percent of Dose Present as: Total 14C ([3]; liver, 48 hr after dosing): 2.84%; Percent of Dose Present as: Total 14C ([3]; urine, 0-24 hr after dosing): 8.70%; Percent of Dose Present as: Total 14C ([3]; uterus, 24 hr after dosing): 0.12%
